This test concerns LNCaP/AR cells. Put plainly: Inhibition of proliferation of LNCaP/AR prostate cancer cells (CCK-8). The test is classed as cell-based.
Where [1] appears, read: proliferation of LNCap/AR cells, 6 days, CCK-8, read-out: IC50.
Setting [2] is: 144 h, proliferation of LNCap/AR cells, 6 days, CCK-8, read-out: IC50.

Where two headings read alike, the source gives them in different places.

Among the data in patent publication US20230091225A1, “Bifunctional chimeric heterocyclic compounds for targeted degradation of androgen receptors and use thereof” (HINOVA PHARMACEUTICALS INC., priority 2019, published 2023) are IC50 values, retold here.

With `CN1C(=O)CCC(N2Cc3cc(F)c(N4CCN(CC5CCN(c6ccc7c(n6)CN(C6CCC(Oc8ccc(C#N)c(Cl)c8)CC6)C7=O)CC5)CC4)cc3C2=O)C1=O` (centres unmarked) [Compound 307, 2-chloro-4-((1r,4r)-4-(2-(4-((4-(6-fluoro-2-(1-methyl-2,6-dioxopiperidin-3-yl)-3-oxoisoindolin-5-yl)piperazin-1-yl)methyl)piperidin-1-yl)-5-oxo-5H-pyrrolo[3,4-b]pyridin-6(7H)-yl)cyclohexyl)oxy)benzonitrile], the IC50 under setting [1] is 0.5 to 1 µM.

For the compound `Cc1ncsc1-c1ccc([C@H](C)NC(=O)[C@@H]2C[C@@H](O)CN2C(=O)[C@@H](NC(=O)COCCCCCCc2ccc3c(c2)CN([C@H]2C(C)(C)[C@H](Oc4ccc(C#N)c(Cl)c4)C2(C)C)C3=O)C(C)(C)C)cc1` [Compound 408, (2S,4R)-1-((S)-2-(2-((6-(2-((1r,3r)-3-(3-chloro-4-cyanophenoxy)-2,2,4,4-tetramethylcyclobutyl)-1-oxoisoindolin-5-yl)hexyl)oxy)acetamide)-3,3-dimethylbutyryl)-4-hydroxy-N-((S)-1-(4-(4-methylthiazol-5-yl)phenyl)ethyl) pyrrolidine-2-carboxamide], the IC50 under setting [2] fell in the range of 0.1 to 0.5 µM.

Turning to “(2S,4R)-1-((S)-2-(2-((2-((5-(1r,3r)-3-(3-chloro-4-cyanophenoxy)-2,2,4,4-tetramethylcyclobutyl)-1-oxoisoindolin-5-yl)oxy)pentyl)oxy)acetamide)-3,3-dimethylbutyryl)-4-hydroxy-N-((S)-1-(4-(4-methylthiazol-5-yl)phenyl)ethyl) pyrrolidine-2-carboxamide [Compound 406]”, the concentration for half-maximal inhibition (IC50) under setting [1] lay in the range of 0.1 to 0.5 µM.

For `CC(=O)O[C@@H]1C[C@@H](C(=O)N[C@@H](C)c2ccc(-c3scnc3C)cc2)N(C(=O)[C@@H](NC(=O)COCCCCCNc2ccc3c(c2)CN([C@H]2C(C)(C)[C@H](Oc4ccc(C#N)c(Cl)c4)C2(C)C)C3=O)C(C)(C)C)C1` [Compound 412], the IC50 under setting [2] was under 0.1 µM.

As to `Cc1ncsc1-c1ccc([C@H](C)NC(=O)[C@@H]2C[C@@H](O)CN2C(=O)[C@@H](NC(=O)C2(OCCCCC#Cc3ccc4c(c3)CN(C3C(C)(C)C(Oc5ccc(C#N)c(Cl)c5)C3(C)C)C4=O)CC2)C(C)(C)C)cc1` (some centres unmarked) [Compound 41], under setting [1], the IC50 is under 0.1 µM.

On to `CC1(C)C(Oc2ccc(C#N)c(Cl)c2)C(C)(C)C1N1Cc2nc(N3CCC(CN4CCN(c5ccc6c(c5)C(=O)N([C@@H]5CCC(=O)NC5=O)C6=O)CC4)CC3)ccc2C1=O` (some centres unmarked) [Compound 202, 2-chloro-4-((1r,3r)-3-(2-(4-((4-(2,6-dioxopiperidin-3-yl-1,3-dioxoisoindolin-5-yl)piperazin-1-yl)methyl)piperidin-1-yl)-5-oxo-5,7-dihydro-6H-pyrrolo[3,4-b]pyridin-6-yl)-2,2,4,4-tetramethylcyclobutoxy)benzonitrile], for which the IC50 under setting [1] fell in the range of 0.1 to 0.5 µM.

“(2R,4R)-1-((S)-2-(2-((6-(4-(((1r,3r)-3-(3-chloro-4-cyanophenoxy)-2,2,4,4-tetramethylcyclobutyl)(methoxy)benzamido)hex-5-yn-1-)oxy)acetamido)-3,3-dimethylbutyryl)-4-hydroxy-N-((S)-1-(4-(4-methylthiazol-5-)phenyl)ethyl) tetrahydropyrrole-2-amide [Compound 435]”: under setting [1], the IC50 was 0.5 to 1 µM.

`Cc1ncsc1-c1ccc([C@H](C)NC(=O)[C@@H]2C[C@@H](O)CN2C(=O)[C@@H](NC(=O)CCN2CC(CC#Cc3ccc4c(c3)CN([C@H]3C(C)(C)[C@H](Oc5ccc(C#N)c(Cl)c5)C3(C)C)C4=O)C2)C(C)(C)C)cc1` [Compound 44]: under “LNCaP/AR, 144 h”, the concentration for half-maximal inhibition (IC50) is 0.1 to 0.5 µM.

On to `[2H]C([2H])([2H])N(C(=O)c1ccc(N2CCC(CN3CCN(c4cc5c(cc4F)C(=O)N(C4CCC(=O)NC4=O)C5)CC3)CC2)nc1)[C@H]1CC[C@H](Oc2ccc(C#N)c(Cl)c2)CC1` (some centres unmarked) [Compound 305, N-((1r,4r)-4-(3-chloro-4-cyanophenoxy)cyclohexyl)-6-(4-((4-(2-(2,6-dioxopiperidin-3-yl)-6-fluoro-1-oxoisoindol-5-yl)piperazin-1-yl)methyl)piperidin-1-yl)-N-deuteromethylnicotinamide], for which the IC50 under setting [2] lay within 0.5 to 1 µM.

`[2H]C([2H])([2H])N(C(=O)c1ccc(N2CCC(CN3CCN(c4cc5c(cc4F)CN(C4CCC(=O)NC4=O)C5=O)CC3)CC2)nc1)[C@H]1CC[C@H](Oc2ccc(C#N)c(Cl)c2)CC1` (some centres unmarked) [Compound 306, N-((1r,4r)-4-(3-chloro-4-cyanophenoxy)cyclohexyl)-6-(4-((4-(2-(2,6-dioxopiperidin-3-yl)-6-fluoro-3-oxoisoindol-5-yl)piperazin-1-yl)methyl)piperidin-1-yl)-N-deuteromethylnicotinamide]: under setting [2], the IC50 is over 1 µM.

As for “(2R,4R)-1-((S)-2-(2-((1-(3-(2-((1r,3r)-3-(3-chloro-4-cyanophenoxy)-2,2,4,4-tetramethylcyclobutyl)-1-oxoisoindolin-5-yl)prop-2-yn-1-yl)azetidine-3-yl)oxy) acetylamino)-3,3-dimethylbutyryl)-4-hydroxy-N-((S)-1-(4-(4-(4-methylthiazol-5-yl)phenyl)ethyl)pyrrolidine-2-carboxamide [Compound 40]”, the IC50 under setting [1] lay in the range of 0.1 to 0.5 µM.

Turning to `CC1(C)[C@H](Oc2ccc(C#N)c(Cl)c2)C(C)(C)[C@H]1N1Cc2cc(C#Cc3cnn(C4CN(c5cc6c(cc5F)C(=O)N(C5CCC(=O)NC5=O)C6=O)C4)c3)ccc2C1=O` (some centres unmarked) [Compound 45], the IC50 under setting [2] is over 1 µM.

Consider `CC1(C)[C@H](Oc2ccc(C#N)c(Cl)c2)C(C)(C)[C@H]1N1Cc2cc(C#CC3CCN(C4CN(c5ccc6c(c5)C(=O)N(C5CCC(=O)NC5=O)C6=O)C4)CC3)ccc2C1=O` (some centres unmarked) [Compound 53, 2-chloro-4-((1r,3r)-3-(5-((1-(I-(2-(2,6-dioxopiperidin-3-yl)-1,3-dioxoisoindolin-5-yl)azelaic acid-3-yl)piperidin-4-yl)ethynyl)-1-oxoisoindolin-2-yl)-2,2,4,4-tetramethylcyclobutoxy)benzonitrile], for which the IC50 under setting [2] was 0.1 to 0.5 µM.

In the case of `Cc1ncsc1-c1ccc([C@H](C)NC(=O)[C@@H]2C[C@@H](O)CN2C(=O)[C@@H](NC(=O)COCCCCCNc2ccc3c(c2)CN([C@H]2C(C)(C)[C@H](Oc4ccc(C#N)c(Cl)c4)C2(C)C)C3=O)C(C)(C)C)cc1` [Compound 411], the IC50 under setting [2] is under 0.1 µM.

As to `Cc1ncsc1-c1ccc([C@H](C)NC(=O)[C@@H]2C[C@@H](O)CN2C(=O)[C@@H](NC(=O)COCCCC#Cc2ccc3c(c2)CN([C@H]2C(C)(C)[C@H](Oc4ccc(C#N)c(Cl)c4)C2(C)C)C3=O)C(C)(C)C)cc1` [Compound 21], the IC50 under setting [2] is under 0.1 µM.

Consider `Cc1ncsc1-c1ccc([C@H](C)NC(=O)[C@@H]2C[C@@H](O)CN2C(=O)[C@@H](NC(=O)COCC2CCN(c3ccc4c(c3)CN([C@H]3C(C)(C)[C@H](Oc5ccc(C#N)c(Cl)c5)C3(C)C)C4=O)CC2)C(C)(C)C)cc1` [Compound 409], for which the IC50 under setting [2] was under 0.1 µM.

For the compound `CC1(C)[C@H](Oc2ccc(C#N)c(Cl)c2)C(C)(C)[C@H]1N1Cc2cc(C#Cc3cnn(C4CN(c5cc6c(cc5F)C(=O)N(C5CCC(=O)NC5=O)C6=O)C4)c3)ccc2C1=O` (some centres unmarked) [Compound 310, 2-chloro-4-((1r,3r)-3-(5-((1-(1-(2-(2,6-dioxopiperidin-3-yl)-6-fluoro-1,3-dioxoisoindolin-5-yl)azetidine-3-yl)-1H-pyrazol-4-yl)ethynyl)-1-oxoisoindolin-2-yl)-2,2,4,4-tetramethylcyclobutoxy)benzonitrile], under setting [1], the IC50 is over 1 µM.

Regarding “(2R,4R)-1-((S)-2-(2-((5-((4-((1r,3r)-3-(4-(4H-1,2,4-triazol-1-yl)phenoxy)-2,2,4,4-tetramethylcyclobutyl)carbamoyl)phenyl)amino)pentyl)oxy)acetamide)-3,3-dimethylbutyryl)-4-hydroxy-N-((S)-1-(4-(4-methylthiazol-5-yl)phenyl)ethyl) pyrrolidine-2-carboxamide [Compound 405]”, under setting [1], the IC50 is over 1 µM.

Take `CC1(C)[C@H](Oc2ccc(C#N)c(Cl)c2)C(C)(C)[C@H]1N1Cc2cc(C#CC3CCN(C4CCN(c5ccc6c(c5)C(=O)N(C5CCC(=O)NC5=O)C6=O)CC4)CC3)ccc2C1=O` (some centres unmarked) [Compound 52]: the IC50 under setting [2] was 0.1 to 0.5 µM.

In the case of `Cc1ncsc1-c1ccc([C@H](C)NC(=O)[C@@H]2C[C@@H](O)CN2C(=O)[C@@H](NC(=O)C2(C(=O)NCCCC#Cc3ccc4c(c3)CN(C3C(C)(C)C(Oc5ccc(C#N)c(Cl)c5)C3(C)C)C4=O)CC2)C(C)(C)C)cc1` (some centres unmarked) [Compound 25], under setting [1], the 50% inhibitory concentration (IC50) was under 0.1 µM.

Take `N#Cc1ccc(O[C@H]2CC[C@H](N3Cc4cc(N5CCC(CN6CCN(c7ccc8c(c7)CN(C7CCC(=O)NC7=O)C8=O)CC6)CC5)ncc4C3=O)CC2)cc1Cl` (some centres unmarked) [Compound 312]: under setting [2], the IC50 was in the range of 0.1 to 0.5 µM.

As for “2-chloro-4-((1r,4r)-4-(2-(4-((4-(3-(2,6-dioxopiperidin-3-yl)-2-methyl-4-oxo-3,4-dihydroquinazoline-7-yl)piperazin-1-yl)methyl)piperidin-1-yl)-5-oxo-5H-pyrrolo[3,4-b]pyridin-6(7H)-yl)cyclohexyl)oxy)benzonitrile [Compound 309]”, the IC50 under setting [1] is 0.1 to 0.5 µM.

As for “(2S,4R)-1-((S)-2-(3-((4-(2-((1r,3r)-3-(3-chloro-4-cyanophenoxy)-2,2,4,4-tetramethylcyclobutyl)-1-oxoisoindolin-5-yl)3-butynoxy)propylamino)-3,3-dimethylbutanol)-4-hydroxy-N-(S)-1-(4-(4-methylthiazole)phenyl)ethyl) formamide [Compound 34]”, the IC50 under setting [1] was under 0.1 µM.

As for `N#Cc1ccc(O[C@H]2CC[C@H](N3Cc4cc(N5CCC(CN6CCN(c7cc8c(cc7F)C(=O)N(C7CCC(=O)NC7=O)C8=O)CC6)CC5)ncc4C3=O)CC2)cc1Cl` (some centres unmarked) [Compound 311], where the note is “LNCaP/AR, 144 h”, the IC50 was over 1 µM.

On to `Cc1ncsc1-c1ccc([C@H](C)NC(=O)[C@@H]2C[C@@H](O)CN2C(=O)[C@@H](NC(=O)COCCCCC#Cc2ccc(C(=O)N[C@H]3C(C)(C)[C@H](Oc4ccc(C#N)c(Br)c4)C3(C)C)cc2)C(C)(C)C)cc1` [Compound 404], for which the IC50 under setting [2] was under 0.1 µM.

In the case of `Cc1ncsc1-c1ccc([C@H](C)NC(=O)[C@@H]2C[C@@H](O)CN2C(=O)[C@@H](NC(=O)COCCCCC#Cc2ccc3c(c2)CN([C@H]2C(C)(C)[C@H](Oc4ccc(C#N)c(Cl)c4)C2(C)C)C3=O)C(C)(C)C)cc1` [Compound 29], the IC50 under setting [2] was under 0.1 µM.
